Data taken from patent US9162992B2, “Compounds and compositions for treatment of breathing control disorders or diseases” (GALLEON PHARMACEUTICALS, INC., priority 2010, dated 2015).
Several values for one entry are separate records, joined by “and”; a condition that tells them apart may be missing. Identical values can stand only once. Counter-ions that a name gives are not always drawn.

Assays:
[1] = GMP drug product stability of final formulation (25° C./60% RH and 2-8° C.), degradant CLXXVIII; type: physicochemical
Source text: A batch of (XXXVI) formulated for clinical use was placed under formal GMP stability (Tables 20I.1 and […]).

[2] = target: T1, BK potassium channel expressed in GH3 cells (Rattus norvegicus, UniProt Q62976); test: BK potassium channel current in GH3 cells, inside-out patches; type: cell-based; settings: Almirite 1 (mM as printed)
T1 construct: endogenous in cells; host or cells: GH3 cells
Protocol: Stock solutions of the test article were prepared in dimethylsulfoxide (DMSO) and stored frozen. Test article concentrations were prepared fresh daily by diluting stock solutions into a physiological saline solution (composition in mM): KCl, 125; CaCl2, 8.5; HEPES, 10; EGTA, 11.25; pH adjusted to 7.2 with KOH (prepared weekly and refrigerated until used). All test solutions contained 0.1% DMSO.
GH3 cells were grown in culture using standard procedures. Ionic currents were measured from inside-out patches of GH3 cells. Channel activity was monitored in symmetrical K^+ conditions with a holding potential of −60 mV. Activities before and in the presence of each concentration of test articles were recorded for ≧3 minutes, respectively.
Data acquisition and analyses were performed using the suite of pCLAMP (Ver. 8.2) programs (MDS-AT, Sunnyvale, Calif. Percent inhibition by test article was calculated using the following equation: 100*(NPocontrol−NPotest)/NPocontrol Results

[3] = target: T2, rat KCNK3/TASK-1 (Rattus norvegicus, UniProt O54912); test: Thallium flux through rat TASK-1 (KCNK3-CHO cells); type: cell-based; settings: Tl+ flux; 3 nM to 30 μM; read-out: rTASK-1 IC50
T2 construct: expressed in transfected cells; host or cells: CHO cells (tetracycline-inducible)
Protocol: (§1) CHO cells expressing recombinant tetracycline-inducible rat KCNK3/TASK-1 (KCNK3-CHO cells) were plated in poly-D-lysine coated 384-well plates at a density of 6,000 cells/well (50 μl/well of 120,000 cells/mL) and allowed to incubate for 72 hrs in the presence of 5% CO2 and 1 μg/mL tetracycline at 30° C. HEK cells expressing recombinant tetracycline-inducible human KCNK9/TASK-3 (KCNK9-HEK cells) were plated at a density of 15,000 cells per well (50 μl/well, 300,000 cells/mL) and incubated overnight at 37° C. and 5% CO2 in the presence of 1 μg/mL tetracycline.
(§2) Drug plates were generated from 10 mM 100% DMSO mother plates. Compounds were transferred to 384-well drug plates and titrated with sequential 1:3 dilutions in 100% DMSO for a total of 9 dilutions. A dilution plate is made by taking 2.4 μl from the mother plate and adding to […] of assay buffer for a 12% DMSO dilution plate. From this dilution plate, a final daughter plate is generated by taking 1 μA of the dilution plate and adding to 40 μA of assay buffer for a final DMSO concentration of 0.3%. Each compound was evaluated in duplicate and the concentration range evaluated was 3 nM to 30 μM.
(§3) When thallium was added to extracellular solution with a stimulus to open channels, Tl^+ flowed down its concentration gradient into the cells and channel activity was detected with an indicator dye, FluxOR™, that increased in cytosolic fluorescence. The FluxOR™ indicator dye was loaded into cells as a membrane permeable acetoxymethyl ester. On the day of each assay, FluxOR™ assay buffer was made fresh from Hank's Balanced Saline Solution (HBSS) buffered with 20 mM HEPES and pH adjusted to 7.4 with NaOH. Dye loading solution was prepared per manufacturer's instructions, and 25 μl of dye solution applied to each well with a multidropper after plating medium was removed manually from cells. Dye was allowed to load for 90 minutes at room temperature in the dark.
(§4) After the 90 min dye loading incubation and subsequent manual dye removal, 24 μl of the drug daughter plate was transfer to cell plates by a cybi-well system and then incubated at room temperature for 20 minutes to allow for equilibration within wells. Stimulation buffer was prepared from 5× chloride-free buffer, thallium, and potassium sulfate containing 5 times the desired final assay concentration of 10 mM K^+ 2.8 mM Tl^+. Cell plates were then transferred to an FDSS 6000 kinetic imaging plate reader (Hamamatsu). Fluorescence at 525 nm (excitation 488 nm) was measured for 10 seconds at 1 Hz to establish baseline for the entire plate. After baseline was established, 6 μl/well of stimulation buffer was added and fluorescence signal recorded for another 140 seconds.
(§5) From the fluorescence signals in the absence and presence of Galleon compounds, Inhibitory concentration curves were plotted and IC50 values were estimated using a curve fitting algorithm.

[4] = target: T3, human KCNK9/TASK-3 (Homo sapiens, UniProt Q9NPC2); test: Thallium flux through human TASK-3 (KCNK9-HEK cells); type: cell-based; settings: Tl+ flux; 3 nM to 30 μM; read-out: hTASK-3 IC50
T3 construct: expressed in transfected cells; host or cells: HEK cells (tetracycline-inducible)
Protocol: as §1, §2, §3, §4, §5

[5] = system: spontaneously breathing rats; test: Minute ventilation (MV) and cardiovascular parameters in naive rats; type: in vivo, rat; design: unit not given here
Protocol: (§6) All surgical procedures were performed under anesthesia induced by 2% isoflurane in compressed medical grade air. With rats in supine position, the right femoral vein was catheterized using polyethylene tubing (PE-50). This catheter was used for fluid and drug administration. Simultaneously, the right femoral artery was also catheterized for monitoring blood pressure and heart rate. In order to measure the respiratory parameters in spontaneously breathing rats, trachea was intubated using 13 gauge tracheal tube (2.5 mm ID, Instech Solomon, Pa.).
After establishing a stable base-line at 1.5% isoflurane, compounds (typically at a dose of 1 mpk) were administered IV, and ventilatory parameters were generated from spontaneously breathing rats, along with cardiovascular output (mean arterial pressure (MAP) and heart rate). Maximum peak minute ventilatory (MV) responses (MPR), along with changes in minute ventilation versus baseline (AMV) were obtained as shown in the tables below.

[6] = system: spontaneously breathing rats; test: Respiratory rate, tidal volume and minute volume in urethane-anesthetized rat; type: in vivo; settings: IV; compared to vehicle
Protocol: Adult male Sprague Dawley rats (250-350 g body weight; Harlan, Indianapolis, Ind., USA) were anesthetized with isoflurane in oxygen. The femoral vein was cannulated to administer compounds. Body temperature was maintained between 36.0 and 37.2° C. throughout the experiment. The cervical portion of the trachea was cannulated and attached to a rat-sized pneumotachometer for measuring tracheal airflow. After surgical instrumentation was complete, isoflurane was slowly discontinued, while urethane (1.8 g/kg) was administered intravenously over 10-15 minutes to maintain anesthesia. Rats were permitted to breathe spontaneously and inspire 100% oxygen. At least 30-45 minutes after discontinuing isoflurane, baseline tracheal airflow was recorded for 20-30 minutes prior to compound administration. Vehicle and test compound were administered intravenously over 15-25 seconds and at a constant volume (1 mL/kg). At least 15-min elapsed between each dose of compound administered. Tracheal airflow was recorded continuously before, during and after compound administration. Tidal volume was derived from the integral of airflow, and respiratory rate was derived from the number of inspiratory cycles per minute. Minute volume was calculated as the product of tidal volume and respiratory rate (FIG. 32).

[7] = system: morphine-induced respiratory depression; test: Effects of morphine and compound on arterial blood gases in the rat; type: in vivo; settings: opioid-treated rat
Protocol: Rats with pre-cannulated jugular vein and femoral arterial catheters (for administering drugs and obtaining blood samples respectively) were obtained from Harlan laboratories and kept at the animal facility at Galleon Pharmaceuticals until the experimental procedures. Each animal was dosed with morphine sulfate (10 mg/kg), dissolved in saline at a concentration of 10 mg/mL, via injection into the jugular vein over a period of 20 seconds with a 20 second flush of 0.9% NaCl saline. Prior to morphine administration, two 250 μL samples of arterial blood were aspirated from the femoral artery into a pre-heparinized syringe. The samples were analyzed on Radiometer's ABL Flex 800, where pO2, pCO2, pH, SaO2 and other parameters were recorded. Aspirated volumes of arterial blood were replaced by room temperature sterile saline (˜300 μL) slowly flushed back into the femoral arterial catheter of the rodent to prevent hypovolemia. Morphine was then administered and 2 minutes later another blood sample was taken.
The infusion started at t=15 minutes and ended at t=35 minutes. Arterial blood gas analysis occurred at time points t=12, 18, 25, 35, 40, 45, and 50 minutes.

[8] = system: morphine-induced respiratory depression; test: Opioid-induced respiratory depression in the rat, plethysmography (minute ventilation); type: in vivo; settings: opioid-treated rat; plethysmography; FIG. 9
Protocol: Rats with pre-cannulated jugular vein (for administering drugs) were acclimated to plethysmography chambers for a minimum of 60 minutes, or until animals were no longer restless. Each animal was dosed with morphine sulfate (10 mg/kg), dissolved in sterile water at a concentration of 10 mg/mL (supplied by Baxter Healthcare Corporation), via injection into the jugular vein catheter over a period of 5-10 seconds.
Compound (XXXVI) was dissolved in 20% hydroxypropyl β-cyclodextran (20% bcd on graph) at a concentration of 0.45 mg/mL at pH 5. After a period of 5 min, compound (XXXVI), labeled as cmpd (A), was administered via infusion into the jugular vein at a dose of 0.10 mg/kg/min for 20 min and then at a dose of […] for 20 min (e.g., 20 μL/min/0.3 kg rat to yield […]).
After 20 minutes of infusion at this dose, the infusion pumps were turned off, and all animals were given a 20 minute recovery period, followed by a post-study analysis of rat health and behavior. […] Results are illustrated in FIG. 1.

[9] = system: spontaneously breathing rats; test: Dose-dependent effect on minute ventilation (MV) in naive rats; type: in vivo, rat; settings: 1.5% isoflurane; for minute ventilation, dose dependence: cumulative IV doses
Protocol: as §6, with “pressure.” for “pressure and heart rate.”
After establishing a stable base-line at 1.5% isoflurane, cumulative dose-dependent (0.01, 0.03, 0.1, 0.3, 1, 3, 10 mg/kg) ventilatory responses to compounds (XXXVI) and (L), labeled as cmpd (A) and cmpd (B) respectively, were generated from spontaneously breathing rats. Maximum peak minute ventilatory (MV) values at each dose of corresponding drug were calculated and used for generating ED50 values.

[10] = Table 8, 1 mpk, 20% HPβCD, pH 4

T2 sequence (O54912 whole entry): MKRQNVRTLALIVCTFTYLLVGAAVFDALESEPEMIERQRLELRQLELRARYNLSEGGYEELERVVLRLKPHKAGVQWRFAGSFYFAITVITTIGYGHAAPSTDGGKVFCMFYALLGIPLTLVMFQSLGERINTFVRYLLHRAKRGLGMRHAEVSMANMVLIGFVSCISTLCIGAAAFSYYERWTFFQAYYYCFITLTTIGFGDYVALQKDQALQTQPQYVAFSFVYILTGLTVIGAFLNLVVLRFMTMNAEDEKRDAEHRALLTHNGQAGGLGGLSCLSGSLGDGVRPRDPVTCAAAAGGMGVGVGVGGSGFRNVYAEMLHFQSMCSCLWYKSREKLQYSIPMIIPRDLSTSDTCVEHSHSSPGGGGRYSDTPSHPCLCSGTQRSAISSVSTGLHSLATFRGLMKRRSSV
T3 sequence (Q9NPC2 whole entry): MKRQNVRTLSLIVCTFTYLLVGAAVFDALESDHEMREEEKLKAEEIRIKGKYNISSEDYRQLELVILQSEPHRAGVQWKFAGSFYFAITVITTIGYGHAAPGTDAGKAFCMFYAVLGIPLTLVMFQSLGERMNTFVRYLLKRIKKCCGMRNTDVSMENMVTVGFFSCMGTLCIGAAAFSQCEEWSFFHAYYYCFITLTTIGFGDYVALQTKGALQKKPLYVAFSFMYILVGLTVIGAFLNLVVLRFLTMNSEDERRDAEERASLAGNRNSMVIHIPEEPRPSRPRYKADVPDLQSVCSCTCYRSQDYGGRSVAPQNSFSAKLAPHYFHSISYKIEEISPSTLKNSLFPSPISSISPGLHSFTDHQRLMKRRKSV
T1 sequence (Q62976 whole entry): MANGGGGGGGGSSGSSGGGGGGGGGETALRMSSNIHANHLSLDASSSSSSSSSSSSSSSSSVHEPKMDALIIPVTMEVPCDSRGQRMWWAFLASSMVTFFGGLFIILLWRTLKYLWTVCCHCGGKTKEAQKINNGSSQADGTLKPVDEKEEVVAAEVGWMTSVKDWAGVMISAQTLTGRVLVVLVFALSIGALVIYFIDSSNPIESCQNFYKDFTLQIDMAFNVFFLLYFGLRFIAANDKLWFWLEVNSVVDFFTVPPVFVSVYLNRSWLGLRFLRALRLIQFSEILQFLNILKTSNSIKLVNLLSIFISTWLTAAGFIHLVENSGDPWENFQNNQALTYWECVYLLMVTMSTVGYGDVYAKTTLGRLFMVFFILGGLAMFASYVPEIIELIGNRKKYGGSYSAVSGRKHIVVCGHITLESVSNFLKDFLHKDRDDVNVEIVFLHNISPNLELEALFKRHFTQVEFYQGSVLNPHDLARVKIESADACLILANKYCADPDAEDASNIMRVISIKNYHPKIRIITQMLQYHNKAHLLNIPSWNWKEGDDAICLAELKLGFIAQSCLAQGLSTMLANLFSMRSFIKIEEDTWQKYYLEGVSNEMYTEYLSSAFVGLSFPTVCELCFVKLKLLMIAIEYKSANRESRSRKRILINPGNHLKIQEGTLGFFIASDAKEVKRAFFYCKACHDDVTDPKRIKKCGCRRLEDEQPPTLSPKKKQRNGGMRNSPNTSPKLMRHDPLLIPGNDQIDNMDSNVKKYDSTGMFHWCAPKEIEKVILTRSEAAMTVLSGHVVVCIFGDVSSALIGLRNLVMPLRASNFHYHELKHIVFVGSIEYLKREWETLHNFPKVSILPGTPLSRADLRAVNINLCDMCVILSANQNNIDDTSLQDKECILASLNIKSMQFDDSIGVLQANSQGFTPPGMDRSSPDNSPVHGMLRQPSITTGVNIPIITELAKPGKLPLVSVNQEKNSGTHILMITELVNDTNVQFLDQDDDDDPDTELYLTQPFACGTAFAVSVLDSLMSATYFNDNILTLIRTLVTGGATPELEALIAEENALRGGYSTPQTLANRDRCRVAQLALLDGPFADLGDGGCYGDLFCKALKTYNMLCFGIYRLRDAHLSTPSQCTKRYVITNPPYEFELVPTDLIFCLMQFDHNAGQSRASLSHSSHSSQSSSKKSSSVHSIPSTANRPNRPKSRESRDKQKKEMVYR

CCCNc1nc(O)nc(NCCC)n1 [(CLXXVIII)]
Level of Degradant (CLXXVIII) in GMP lot# 041I0511 ([1]; 5° C., amb. RH, Inverted, T = 1 month): 0.03% | Level of Degradant (CLXXVIII) in GMP lot# 041I0511 ([1]; 5° C., amb. RH, Inverted, T = 3 month): 0.06% | Level of Degradant (CLXXVIII) in GMP lot# 041I0511 ([1]; 5° C., amb. RH, Inverted, T = 6 month): 0.08% | Level of Degradant (CLXXVIII) in GMP lot# 041I0511 ([1]; 5° C., amb. RH, Inverted, T = 9 month): 0.11% | Level of Degradant (CLXXVIII) in GMP lot# 041I0511 ([1]; 5° C., amb. RH, Upright, T = 6 month): 0.08% | Level of Degradant (CLXXVIII) in GMP lot# 041I0511 ([1]; Release Testing, Drug Product Production lot Sample Pull Beg.): 0.00% | Level of Degradant (CLXXVIII) in GMP lot# 041I0511 ([1]; Release Testing, Drug Product Production lot Sample Pull End): 0.00% | Level of Degradant (CLXXVIII) in GMP lot# 041I0511 ([1]; Release Testing, Drug Product Production lot Sample Pull Mid.): 0.00%

C=CCNc1nc(NCC=C)nc(N2CCN(C(c3ccc(F)cc3)c3ccc(F)cc3)CC2)n1 [Almirite, almitrine, reference compound]
Inhibition (%), Average [2]: 94.7% | NPo, Average [2]: 0.0010 | Inhibition (%) ([2]; single patch): 97.9% and 91.5% | NPo (total channel open probability) ([2]; single patch): 0.0009 and 0.0011

CCCNc1nc(NN(C)C)c2ccn(C)c2n1 [CLXX, N,N-Dimethyl-N′-(2-n-propylamino-7-methyl-pyrrolo[2,3d]pyrimidin-4-yl)-hydrazine]
IC50 [3]: 160 nM | IC50 [4]: > 30000 nM | MV DMV ([5]; Table 8, 1 mpk, 15/65/20, pH 5): 89 | MV MPR ([5]; Table 8, 1 mpk, 15/65/20, pH 5): 167 | MV DMV [5, 10]: 83 | MV MPR [5, 10]: 175

CCCNc1nc(NC)nc(NCCC)n1 [CLXXII, N-(2,4-Bis-n-propylamino)-N-(6-methylamino)-[1,3,5]triazine]
respiratory rate, tidal volume and minute volume [6]: increased both respiratory rate and tidal volume, and their product minute volume | IC50 [3]: 10 nM | IC50 [4]: > 30000 nM | MV MPR ([5]; 1 mpk IV, 15/65/20, pH 5): 145 | MV ΔMV ([5]; 1 mpk IV, 15/65/20, pH 5): 106

CCCNc1nc(N(C)OC)c2cc[nH]c2n1 [CXLII, N-(2-Propylamino-7H-pyrrolo[2,3d]pyrimidin-4-yl)-N,O-dimethyl-hydroxylamine hydrochloride]
effects of opioid on blood gases and pH (pH, SaO2, pO2, pCO2) [7]: reverse the effects of opioid on blood gases and pH | minute ventilation (MV), reversal of opioid-induced respiratory depression [8]: reverse opioid-induced respiratory depression

CCCNc1cc(N(C)OC)nc(NCCC)n1 [CXXI, 2,6-Bis-(N-n-propylamino)-[1,3]pyrimidin-4-yl)-N,O-dimethyl-hydroxylamine hydrogen sulfate]
minute ventilation, dose dependence [9]: increase minute ventilation in a dose-dependent manner | IC50 [3]: 220 nM | IC50 [4]: > 30000 nM

CCCNc1nc(NCCC)nc(N(C)NC)n1.O=S(=O)(O)O [L, N-(4,6-Bis-n-propylamino-[1,3,5]triazin-2-yl)-N,N′-dimethyl-hydrazine hydrogen sulfate]
effects of opioid on blood gases and pH (pH, SaO2, pO2, pCO2) [7]: reverse the effects of opioid on blood gases and pH | ED50 ([9]; Rattus norvegicus, cumulative IV doses 0.01-10 mg/kg, read-out: ED50, maximum peak minute ventilation): 0.13 mg/kg | minute ventilation, dose dependence [9]: increased minute ventilation in a dose-dependent manner

CCCNc1nc(NCCC)nc(NOC)n1.Cl [XLII, N-(4,6-Bis-n-propylamino-[1,3,5]triazin-2-yl)-O-methyl-hydroxylamine hydrochloride]
respiratory rate, tidal volume and minute volume [6]: increased both respiratory rate and tidal volume, and their product minute volume | IC50 [3]: 50 nM | IC50 [4]: > 30000 nM

CCCNc1nc(NCCC)nc(NN(C)C)n1 [XLVI, N-(4,6-Bis-n-propylamino-[1,3,5]triazin-2-yl)-N′,N′-dimethylhydrazine]
IC50 [3]: 600 nM | IC50 [4]: > 30000 nM
